The results in this text go back to ChEMBL document CHEMBL3120139, “Design, synthesis, pharmacological evaluation and computational studies of 1-(biphenyl-4-yl)-2-[4-(substituted phenyl)-piperazin-1-yl]ethanones as potential antipsychotics” (Eur J Med Chem, 2014).

For series [1], the system named is Mus musculus. The experiment in a line: Induction of catalepsy in albino mouse at 15 mg/kg, ip relative to control. To be noted: in vivo. Also on record: dose 15 mg/kg, route intraperitoneal. Format: organism-based.
Series [2] has as its system Mus musculus. The series is described as follows: Antipsychotic activity in albino mouse assessed as inhibition of apomorphine-induced climbing behaviour at 15 mg/kg, ip measured after 10 mins at 5 mins interval for 30 mins relative to control. Format: functional. To be noted: route intraperitoneal.
For series [3], the system named is Mus musculus. The experiment in a line: Antiserotogenic activity in albino mouse assessed as inhibition of 5HTP-induced head twitches at 15 mg/kg, ip measured for 5 mins at every 5 mins interval for 1 hr relative to control. The class given is functional. To be noted: route intraperitoneal.

In turn, `O=C(CN1CCN(c2ccccc2)CC1)c1ccc(-c2ccccc2)cc1` displayed an Activity in the series on Mus musculus [1] of 34.53%. Also, the inhibition in vivo – broadly, the drop in the measured response relative to a control, in per cent – at 15 mg/kg is 31.9% with Mus musculus [2] and 28% with Mus musculus [3].

The compound `O=C(CN1CCN(c2ccccc2Cl)CC1)c1ccc(-c2ccccc2)cc1` had an Activity with Mus musculus [1] of 42.31%. The inhibition in vivo at 15 mg/kg worked out at 38.2% in the series on Mus musculus [2] and 35.2% in the series on Mus musculus [3].

With `Cc1ccccc1N1CCN(CC(=O)c2ccc(-c3ccccc3)cc2)CC1`, in the series with Mus musculus [1], the Activity was 35.84%. For the same compound, the inhibition in vivo at 15 mg/kg was 38.5% with Mus musculus [2] and 26.7% in the series on Mus musculus [3].

Regarding `COc1ccccc1N1CCN(CC(=O)c2ccc(-c3ccccc3)cc2)CC1`, the Activity with Mus musculus [1] came to 29.43%. Moreover, the values for the inhibition in vivo at 15 mg/kg in the series with Mus musculus [2] and with Mus musculus [3] were 53.4% and 61.3%, respectively.

Take `O=C(CN1CCN(c2cccc(Cl)c2)CC1)c1ccc(-c2ccccc2)cc1`: the Activity in the series on Mus musculus [1] is listed as 31.84%. The inhibition in vivo at 15 mg/kg is 29.9% in the series with Mus musculus [2] and 32.6% in the series with Mus musculus [3].

Compound `Cc1cccc(N2CCN(CC(=O)c3ccc(-c4ccccc4)cc3)CC2)c1` had an Activity in the series with Mus musculus [1] of 33.82%. Moreover, the inhibition in vivo at 15 mg/kg in the series with Mus musculus [2] was 33.6%; in the series with Mus musculus [3], 29.6%.

With `O=C(CN1CCN(c2cccc(C(F)(F)F)c2)CC1)c1ccc(-c2ccccc2)cc1`, the Activity with Mus musculus [1] was determined as 31.84%. The inhibition in vivo at 15 mg/kg amounted to 26.4% in the series with Mus musculus [2] and 32.6% in the series with Mus musculus [3].

In the series with Mus musculus [1], `O=C(CN1CCN(c2ccc(Cl)cc2)CC1)c1ccc(-c2ccccc2)cc1` came in with an Activity of 35.17%. Besides, the inhibition in vivo at 15 mg/kg was determined as 26.4% in the series with Mus musculus [2] and 29.2% with Mus musculus [3].

On to `O=C(CN1CCN(c2ccc(F)cc2)CC1)c1ccc(-c2ccccc2)cc1`, for which the Activity in the series with Mus musculus [1] was determined as 30.48%. Besides, the inhibition in vivo at 15 mg/kg came to 23.4% in the series with Mus musculus [2] and 24.5% in the series with Mus musculus [3].

For `Cc1ccc(N2CCN(CC(=O)c3ccc(-c4ccccc4)cc3)CC2)cc1`, in the series with Mus musculus [1], the Activity was 38.66%. The inhibition in vivo at 15 mg/kg was 33.3% in the series with Mus musculus [2] and 29.8% in the series on Mus musculus [3].

The compound `COc1ccc(N2CCN(CC(=O)c3ccc(-c4ccccc4)cc3)CC2)cc1` displayed an Activity in the series on Mus musculus [1] of 59.28%. Further, the inhibition in vivo at 15 mg/kg with Mus musculus [2] is 32.9%; with Mus musculus [3] it was 36.1%.

As to `O=C(CN1CCN(c2cccc(Cl)c2Cl)CC1)c1ccc(-c2ccccc2)cc1`, in the series on Mus musculus [1], the Activity worked out at 28.97%. Further, the inhibition in vivo at 15 mg/kg in the series with Mus musculus [2] came to 42.8%; with Mus musculus [3], 38.3%.

Turning to `Cc1cccc(N2CCN(CC(=O)c3ccc(-c4ccccc4)cc3)CC2)c1C`, in the series on Mus musculus [1], the Activity is listed as 29.87%. The values for the inhibition in vivo at 15 mg/kg in the series with Mus musculus [2] and with Mus musculus [3] were 40.7% and 35.4%, respectively.

Take `O=C(CN1CCN(c2ccc(Cl)c(Cl)c2)CC1)c1ccc(-c2ccccc2)cc1`: in the series on Mus musculus [1], the Activity is recorded as 30.5%. For the same compound, the results for the inhibition in vivo at 15 mg/kg with Mus musculus [2] and in the series on Mus musculus [3] were 25.7% and 38.8%, respectively.

In the series on Mus musculus [1], `O=C1CCc2ccc(OCCCCN3CCN(c4cccc(Cl)c4Cl)CC3)cc2N1` [ARIPIPRAZOLE] had an Activity of 26.86%. Also, the inhibition in vivo at 15 mg/kg was 61.1% with Mus musculus [2] and 94.5% in the series with Mus musculus [3].
